Experimental data as given in US8802597B2, “Herbicidal pyrimidines” (E I du Pont de Nemours and Company, priority 2003, dated 2014).
Where two headings read alike, the source gives them in different places.

How the values were obtained:
Test in all cases: Test C pre/postemergence
Assay type in all cases: in vivo
[1] = test system: Surinam grass (Brachiaria decumbens); conditions: Urochloa decumbens; for pest or weed control at 125 g/ha: 125 g ai/ha; for pest or weed control at 31 g/ha: 31 g ai/ha; for pest or weed control at 62 g/ha: 62 g ai/ha; for pest or weed control at 250 g/ha: 250 g ai/ha
How it was run: (§1)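 Percent control is a visual rating (0 none, 100 complete) taken against untreated plants after 12 to 14 days of greenhouse growth. Applications were made preemergence to seeded pots and postemergence to plants at the 1- to 4-leaf stage, in a non-phytotoxic surfactant-containing solvent.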

[2] = test system: cocklebur (Xanthium strumarium); conditions: Xanthium strumarium; for pest or weed control at 31 g/ha: 31 g ai/ha; for pest or weed control at 62 g/ha: 62 g ai/ha; for pest or weed control at 125 g/ha: 125 g ai/ha; for pest or weed control at 250 g/ha: 250 g ai/ha
How it was run: as §1

[3] = test system: common (oilseed) sunflower (Helianthus annuus); conditions: Helianthus annuus, pre-emergence, Preemergence, read-out: Plant response rating, Sunflower
How it was run: as §1

[4] = test system: crabgrass (Digitaria sanguinalis); conditions: Digitaria sanguinalis; for pest or weed control at 31 g/ha: 31 g ai/ha; for pest or weed control at 62 g/ha: 62 g ai/ha; for pest or weed control at 125 g/ha: 125 g ai/ha; for pest or weed control at 250 g/ha: 250 g ai/ha
How it was run: as §1

[5] = test system: giant foxtail (Setaria faberii); conditions: Setaria faberi; for pest or weed control at 125 g/ha: 125 g ai/ha; for pest or weed control at 31 g/ha: 31 g ai/ha; for pest or weed control at 62 g/ha: 62 g ai/ha; for pest or weed control at 250 g/ha: 250 g ai/ha
How it was run: as §1

[6] = test system: johnsongrass (Sorghum halepense); conditions: Sorghum halepense; for pest or weed control at 31 g/ha: 31 g ai/ha; for pest or weed control at 62 g/ha: 62 g ai/ha; for pest or weed control at 125 g/ha: 125 g ai/ha; for pest or weed control at 250 g/ha: 250 g ai/ha
How it was run: as §1

kochia (Kochia scoparia) = conditions: Bassia scoparia, post-emergence, Postemergence
How it was run: as §1

[7] = post-emergence, Postemergence, scale 0 to 100 (0 no effect, 100 complete control), read-out: Surinam Grass plant response rating
[8] = pre-emergence, Preemergence, scale 0 to 100, 0 no effect, 100 complete control, read-out: Plant response rating, Surinam Grass
[9] = pre-emergence, Preemergence, scale 0 to 100, read-out: Plant response rating, Surinam Grass
[10] = post-emergence, Postemergence, scale 0 to 100 (0 no effect, 100 complete control), read-out: Cocklebur plant response rating
[11] = pre-emergence, Preemergence, scale 0 to 100, 0 no effect, 100 complete control, read-out: Plant response rating, Cocklebur
[12] = pre-emergence, Preemergence, scale 0 to 100, read-out: Plant response rating, Cocklebur
[13] = post-emergence, Postemergence, scale 0 to 100 (0 no effect, 100 complete control), read-out: Crabgrass plant response rating
[14] = pre-emergence, Preemergence, scale 0 to 100, 0 no effect, 100 complete control, read-out: Plant response rating, Crabgrass
[15] = pre-emergence, Preemergence, scale 0 to 100, read-out: Plant response rating, Crabgrass
[16] = post-emergence, Postemergence, scale 0 to 100 (0 no effect, 100 complete control), read-out: Foxtail, Giant plant response rating
[17] = pre-emergence, Preemergence, scale 0 to 100, 0 no effect, 100 complete control, read-out: Plant response rating, Foxtail, Giant
[18] = pre-emergence, Preemergence, scale 0 to 100, read-out: Plant response rating, Foxtail, Giant
[19] = post-emergence, Postemergence, scale 0 to 100 (0 no effect, 100 complete control), read-out: Johnsongrass plant response rating
[20] = pre-emergence, Preemergence, scale 0 to 100, 0 no effect, 100 complete control, read-out: Plant response rating, Johnsongrass
[21] = pre-emergence, Preemergence, scale 0 to 100, read-out: Plant response rating, Johnsongrass

## CCOC(=O)c1nc(C2CC2)nc(N)c1F [Compound 30]
[1]; [7]
  pest or weed control at 125 g/ha: 0%
  pest or weed control at 62 g/ha: 0%
[1]; post-emergence, Postemergence, read-out: Plant response rating (scale of 0 to 100), Surinam Grass
  pest or weed control at 31 g/ha: 0%
[1]; post-emergence, Postemergence, scale 0 to 100, read-out: Plant response rating, Surinam Grass
  pest or weed control at 250 g/ha: 35%
[1]; [8]
  pest or weed control at 31 g/ha: 0%
  pest or weed control at 62 g/ha: 0%
[1]; [9]
  pest or weed control at 125 g/ha: 0%
  pest or weed control at 250 g/ha: 20%
[2]; post-emergence, Postemergence, read-out: Plant response rating (scale of 0 to 100), Cocklebur
  pest or weed control at 31 g/ha: 90%
[2]; [10]
  pest or weed control at 62 g/ha: 95%
  pest or weed control at 125 g/ha: 100%
[2]; post-emergence, Postemergence, scale 0 to 100, read-out: Plant response rating, Cocklebur
  pest or weed control at 250 g/ha: 100%
[2]; [11]
  pest or weed control at 31 g/ha: 0%
  pest or weed control at 62 g/ha: 60%
[2]; [12]
  pest or weed control at 125 g/ha: 85%
  pest or weed control at 250 g/ha: 90%
[3]; 31 g ai/ha, scale 0 to 100, 0 no effect, 100 complete control
  pest or weed control at 31 g/ha: 20%
[3]; 62 g ai/ha, scale 0 to 100, 0 no effect, 100 complete control
  pest or weed control at 62 g/ha: 80%
[3]; 125 g ai/ha, scale 0 to 100
  pest or weed control at 125 g/ha: 90%
[3]; 250 g ai/ha, scale 0 to 100
  pest or weed control at 250 g/ha: 90%
[4]; post-emergence, Postemergence, read-out: Plant response rating (scale of 0 to 100), Crabgrass
  pest or weed control at 31 g/ha: 0%
[4]; [13]
  pest or weed control at 62 g/ha: 0%
  pest or weed control at 125 g/ha: 5%
[4]; post-emergence, Postemergence, scale 0 to 100, read-out: Plant response rating, Crabgrass
  pest or weed control at 250 g/ha: 50%
[4]; [14]
  pest or weed control at 31 g/ha: 0%
  pest or weed control at 62 g/ha: 0%
[4]; [15]
  pest or weed control at 125 g/ha: 70%
  pest or weed control at 250 g/ha: 85%
[5]; [16]
  pest or weed control at 125 g/ha: 0%
  pest or weed control at 62 g/ha: 0%
[5]; post-emergence, Postemergence, read-out: Plant response rating (scale of 0 to 100), Foxtail, Giant
  pest or weed control at 31 g/ha: 0%
[5]; post-emergence, Postemergence, scale 0 to 100, read-out: Plant response rating, Foxtail, Giant
  pest or weed control at 250 g/ha: 40%
[5]; [17]
  pest or weed control at 31 g/ha: 0%
  pest or weed control at 62 g/ha: 0%
[5]; [18]
  pest or weed control at 125 g/ha: 20%
  pest or weed control at 250 g/ha: 60%
[6]; post-emergence, Postemergence, read-out: Plant response rating (scale of 0 to 100), Johnsongrass
  pest or weed control at 31 g/ha: 0%
[6]; [19]
  pest or weed control at 62 g/ha: 5%
  pest or weed control at 125 g/ha: 10%
[6]; post-emergence, Postemergence, scale 0 to 100, read-out: Plant response rating, Johnsongrass
  pest or weed control at 250 g/ha: 40%
[6]; [20]
  pest or weed control at 31 g/ha: 0%
  pest or weed control at 62 g/ha: 0%
[6]; [21]
  pest or weed control at 125 g/ha: 5%
  pest or weed control at 250 g/ha: 5%
Kochia (Kochia scoparia); 31 g ai/ha, read-out: Plant response rating (scale of 0 to 100), Kochia
  pest or weed control at 31 g/ha: 55%
Kochia (Kochia scoparia); 62 g ai/ha, scale 0 to 100 (0 no effect, 100 complete control), read-out: Kochia plant response rating
  pest or weed control at 62 g/ha: 90%
